Data on 1 compound can be found in patent US11178895B2, “Composition for enhancing immunity of insects and method thereof” (NatureWise Biotech & Medicals Corporation, priority 2017, dated 2021).

The subject of the series is field bees. The experiment in a line: Honey bee acute contact toxicity test (topical imidacloprid): tolerance of bees to imidacloprid. The series is classed as in vivo. The conditions noted are these: control group fed 50% sucrose water. The text has this: Many reports confirm that neonicotinoids cause damage to the immune system of bees and many species (Mason et al., 2013). It is clear that damage to the immune system may be one of the important causes of bee killing by imidacloprid (a pesticide). According to the experimental results of the composition of the invention on the survival rate of bees and the regulation of immune genes, in this experiment, field bees that are easily exposed to pesticides are used as the test subjects, and sugar water containing a concentration of 0.5 mg/mL of Macaranga tanarius extract is fed to observe whether the tolerance of bees to imidacloprid can be enhanced.
The experiment employed Topical application method with reference to US EPAOCSPP 850.3020: Honey Bee Acute Contact Toxicity Test. […] After the bees were frozen and fainted, 1 μg/bee of the imidacloprid solution was administered quantitatively to the prothorax tergum of the bee by a microapplicator. The solvent control group was administered with 1 […]. Each group had 10 bees. After the administration of the drug, the bees were transferred to a constant-temperature growth box for breeding. The sugar water containing 0.5 mg/mL of Macaranga tanarius extract was provided to feed the bees in the experimental group, and the control group was fed with 50% sucrose water. […]

Turning to `O=[N+]([O-])NC1=NCCN1Cc1ccc(Cl)nc1` [imidacloprid], the “24-hour average mortality rate” value (6.7 ng/μL imidacloprid) worked out at 19.30% and the “24-hour average mortality rate” value (23.8 ng/μL imidacloprid) turned out to be 36.84%.
